In patent US20150258059A1, “ANTIMICROBIAL AND RADIOPROTECTIVE COMPOUNDS” (BioDiem, Ltd, priority 2001, published 2015):
Read-outs that look alike come from different tables or passages of the source.

Key:
Format in all cases: cell-based
[1] = tested on: Conditional pathogenic enterobacteria gram-negative aerobic bacilli; also: key: + sensitive strains; + moderately sensitive strains; − stable strains
[2] = tested on: Pseudomonas aeruginosa B-601; test: Sensitivity of strains: suppression of growth; conditions: Compound (1) 1.0%; antibiotics disc method
Escherichia coli M-17 = test: Sensitivity of strains: suppression of growth; conditions: Compound (1) 1.0%; antibiotics disc method
Escherichia coli B-683 = test: Sensitivity of strains: suppression of growth; conditions: Compound (1) 1.0%; antibiotics disc method
Escherichia coli B-65 = test: Sensitivity of strains: suppression of growth; conditions: Compound (1) 1.0%; antibiotics disc method
[3] = tested on: Enterobacter aerogenes B-679; test: Sensitivity of strains: suppression of growth; conditions: Compound (1) 1.0%; antibiotics disc method
[4] = tested on: Enterobacter aerogenes B-687; test: Sensitivity of strains: suppression of growth; conditions: Compound (1) 1.0%; antibiotics disc method
[5] = tested on: Citrobacter diversus B-678; test: Sensitivity of strains: suppression of growth; conditions: Compound (1) 1.0%; antibiotics disc method
Acinetobacter B-681 = test: Sensitivity of strains: suppression of growth; conditions: Compound (1) 1.0%; antibiotics disc method
Acinetobacter B-676 = test: Sensitivity of strains: suppression of growth; conditions: Compound (1) 1.0%; antibiotics disc method
Acinetobacter B-677 = test: Sensitivity of strains: suppression of growth; conditions: Compound (1) 1.0%; antibiotics disc method
Alkaligenes sp. B-689 = test: Sensitivity of strains: suppression of growth; conditions: Compound (1) 1.0%; antibiotics disc method
Alkaligenes sp. B-667 = test: Sensitivity of strains: suppression of growth; conditions: Compound (1) 1.0%; antibiotics disc method
[6] = tested on: Yersinia pseudotuberculosis; conditions: Compound (1) 1.0%; antibiotics disc method
[7] = tested on: Klebsiella pneumoniae M-A21; test: Sensitivity of strains: suppression of growth; conditions: Compound (1) 1.0%; antibiotics disc method
[8] = tested on: Klebsiella pneumoniae M-248; test: Sensitivity of strains: suppression of growth; conditions: Compound (1) 1.0%; antibiotics disc method
[9] = tested on: Corynebacterium diphtheriae B-670; test: Sensitivity of strains: suppression of growth; conditions: Compound (1) 1.0%; antibiotics disc method
[10] = tested on: Neisseria meningitidis M-6231; test: Sensitivity of strains: suppression of growth; conditions: Compound (1) 1.0%; antibiotics disc method
[11] = tested on: Neisseria meningitidis M-A72; test: Sensitivity of strains: suppression of growth; conditions: Compound (1) 1.0%; antibiotics disc method
[12] = tested on: Staphylococcus aureus M-12159; test: Sensitivity of strains: suppression of growth; conditions: Compound (1) 1.0%; antibiotics disc method
[13] = tested on: Staphylococcus aureus M-209; test: Sensitivity of strains: suppression of growth; conditions: Compound (1) 1.0%; antibiotics disc method
[14] = tested on: Staphylococcus aureus B-685; test: Sensitivity of strains: suppression of growth; conditions: Compound (1) 1.0%; antibiotics disc method
[15] = tested on: Staphylococcus aureus B-674; test: Sensitivity of strains: suppression of growth; conditions: Compound (1) 1.0%; antibiotics disc method
[16] = tested on: Staphylococci epidermidis D-513; test: Sensitivity of strains: suppression of growth; conditions: Compound (1) 1.0%; antibiotics disc method
[17] = tested on: Staphylococcus epidermidis BK-30; test: Sensitivity of strains: suppression of growth; conditions: Compound (1) 1.0%; antibiotics disc method
[18] = tested on: γ-hemolytic streptococcus B-672; test: Sensitivity of strains: suppression of growth; conditions: Compound (1) 1.0%; antibiotics disc method
[19] = tested on: β-hemolytic streptococcus B-624; test: Sensitivity of strains: suppression of growth; conditions: Compound (1) 1.0%; antibiotics disc method
Bacillus sp. B-575 = test: Sensitivity of strains: suppression of growth; also: key: + sensitive strains; + moderately sensitive strains; − stable strains
[20] = tested on: Salmonella paratyphi M-16469; test: Sensitivity of strains: suppression of growth; conditions: Compound (1) 1.0%; antibiotics disc method
[21] = tested on: Salmonella typhimurium M-727; test: Sensitivity of strains: suppression of growth; conditions: Compound (1) 1.0%; antibiotics disc method
[22] = tested on: Shigella flexneri M-2A6907; test: Sensitivity of strains: suppression of growth; conditions: Compound (1) 1.0%; antibiotics disc method
Shigella sonnei B-720 = test: Sensitivity of strains: suppression of growth; conditions: Compound (1) 1.0%; antibiotics disc method

| Compound | Suppression of Growth (+/−) [2] | Suppression of Growth (+/−) (Escherichia coli M-17) | Suppression of Growth (+/−) (Escherichia coli B-683) | Suppression of Growth (+/−) (Escherichia coli B-65) | Suppression of Growth (+/−) [3] | Suppression of Growth (+/−) [4] | Suppression of Growth (+/−) (Acinetobacter B-681) | Suppression of Growth (+/−) (Acinetobacter B-676) | Suppression of Growth (+/−) (Alkaligenes sp. B-689) | Suppression of Growth (+/−) (Alkaligenes sp. B-667) | Suppression of Growth (+/−) [6] | Suppression of Growth (+/−) [7] | Suppression of Growth (+/−) [8] | Suppression of Growth (+/−) [10] | Suppression of Growth (+/−) [11] | Suppression of Growth (+/−) [12] | Suppression of Growth (+/−) [13] | Suppression of Growth (+/−) [14] | Suppression of Growth (+/−) [15] | Suppression of Growth (+/−) [16] | further results |
| --- | --- | --- | --- | --- | --- | --- | --- | --- | --- | --- | --- | --- | --- | --- | --- | --- | --- | --- | --- | --- | --- |
| NC[C@H]1O[C@H](O[C@H]2[C@H](O)[C@@H](O[C@H]3O[C@H](CO)[C@@H](O)[C@H](N)[C@H]3O)[C@H](N)C[C@@H]2N)[C@H](O)[C@@H](O)[C@@H]1O [Antibiotic 5, kanamycin] | + | + | + | + | − | − | − | − | + | − | − | − | − | − | − | + | + | + | − | − | Suppression of Growth (+/−) [1]: −; Suppression of Growth (+/−) [5]: +; Suppression of Growth (+/−) (Acinetobacter B-677): −; Suppression of Growth (+/−) [9]: −; Suppression of Growth (+/−) [17]: −; Suppression of Growth (+/−) [18]: −; Suppression of Growth (+/−) [19]: − |
| CC1(C)S[C@@H]2[C@H](NC(=O)C(C(=O)O)c3ccccc3)C(=O)N2[C@H]1C(=O)O (stereo partly drawn) [Antibiotic 4, carbenicillin] | + | + | + | + | − | − | − | − | − | − | − | − | − | − | − | + | + | + | − | + | Suppression of Growth (+/−) [1]: −; Suppression of Growth (+/−) [5]: −; Suppression of Growth (+/−) (Acinetobacter B-677): −; Suppression of Growth (+/−) [9]: −; Suppression of Growth (+/−) (Bacillus sp. B-575; Compound (1) 1.0%, antibiotics disc method): −; Suppression of Growth (+/−) [17]: +; Suppression of Growth (+/−) [18]: −; Suppression of Growth (+/−) [19]: + |
| polymixin [Antibiotic 9] | + | + | + | + | + | + | − | − | − | + | − | − | − | − | − | − | + | − | − | − | Suppression of Growth (+/−) [1]: −; Suppression of Growth (+/−) [20]: −; Suppression of Growth (+/−) (Acinetobacter B-677): −; Suppression of Growth (+/−) [9]: −; Suppression of Growth (+/−) (Bacillus sp. B-575): −; Suppression of Growth (+/−) [17]: −; Suppression of Growth (+/−) [18]: −; Suppression of Growth (+/−) [19]: − |
| CC1(C)S[C@@H]2[C@H](NC(=O)[C@H](N)c3ccccc3)C(=O)N2[C@H]1C(=O)O [Antibiotic 2, ampicillin] | + | + | + | + | − | − | − | − | − | − | − | − | − | − | − | − | − | − | − | + | Suppression of Growth (+/−) [1]: −; Suppression of Growth (+/−) [5]: +; Suppression of Growth (+/−) [21]: −; Suppression of Growth (+/−) (Acinetobacter B-677): −; Suppression of Growth (+/−) (Bacillus sp. B-575): −; Suppression of Growth (+/−) [17]: +; Suppression of Growth (+/−) [18]: +; Suppression of Growth (+/−) [19]: + |
| O=C(N[C@H](CO)[C@H](O)c1ccc([N+](=O)[O-])cc1)C(Cl)Cl [Antibiotic 7, levomicethin] | + | + | + | + | − | − | − | − | + | − | − | − | − | − | − | − | − | − | + | − | Suppression of Growth (+/−) [1]: −; Suppression of Growth (+/−) [5]: −; Suppression of Growth (+/−) [22]: +; Suppression of Growth (+/−) [21]: −; Suppression of Growth (+/−) (Acinetobacter B-677): −; Suppression of Growth (+/−) (Bacillus sp. B-575): +; Suppression of Growth (+/−) [17]: −; Suppression of Growth (+/−) [18]: −; Suppression of Growth (+/−) [19]: − |
| CN(C)[C@@H]1C(=O)C(C(N)=O)=C(O)[C@@]2(O)C(=O)C3=C(O)c4c(O)cccc4[C@@](C)(O)[C@H]3C[C@@H]12 [Antibiotic 13, tetracycline] | + | + | + | + | − | − | − | − | − | − | − | − | − | − | − | − | − | − | + | − | Suppression of Growth (+/−) (Acinetobacter B-677): −; Suppression of Growth (+/−) [9]: +; Suppression of Growth (+/−) (Bacillus sp. B-575): +; Suppression of Growth (+/−) [17]: −; Suppression of Growth (+/−) [18]: −; Suppression of Growth (+/−) [19]: − |
| ristomycin [Antibiotic 11] | − | − | − | + | − | − | − | − | − | − | − | − | − | − | − | + | + | + | − | + | Suppression of Growth (+/−) [5]: −; Suppression of Growth (+/−) [22]: −; Suppression of Growth (+/−) (Shigella sonnei B-720): −; Suppression of Growth (+/−) [21]: −; Suppression of Growth (+/−) [20]: −; Suppression of Growth (+/−) [9]: +; Suppression of Growth (+/−) [17]: +; Suppression of Growth (+/−) [18]: +; Suppression of Growth (+/−) [19]: + |
